These are literature values, as cited in patent US20110091459A1, “IMIDAZOLE MODULATORS OF MUSCARINIC ACETYLCHOLINE RECEPTOR M3” (AUSPEX PHARMACEUTICALS, INC., priority 2008, published 2011).

The conditions of data set [1]: metabolite formed by CYP2A6 mediated hydroxylation of the lactone ring.
The conditions of data set [2]: in vivo.
For data set [3] the following is noted: in vivo. This is another data set of the same source.

For the compound `CC[C@@]1(O)C(=O)OC[C@H]1Cc1cncn1C` [3-hydroxypilocarpine], in data set [1], the pharmacological activity result was “pharmacologically inactive”. Take `CC[C@@H]1C(=O)OC[C@@H]1Cc1cncn1C` [Pilocarpine, (3S,4R)-3-ethyl-4-((1-methyl-1H-imidazol-5-yl)methyl)dihydrofuran-2(3H)-one]: the adverse effects entry in data set [2] was “blurred vision, nightblindness, and pulmonary edema”. For the same compound, the half-life in data set [3] is 45.6 to 81 min.
